{"source": "patent US20100179058A1", "about": "“Azolylmethyloxiranes, Their Use for Controlling Phytopathogenic Fungi, and Compositions Comprising Them” (BASF SE, priority 2006, published 2010)", "key": {"Alternaria solani [1]": {"test_system": "Alternaria solani", "test": "Activity against early blight of tomato caused by Alternaria solani (Alteso P1), greenhouse", "format": "in vivo", "conditions": "tomato plants, comparative experiment, untreated 90", "method": "The active compounds were prepared separately or jointly as a stock solution comprising 25 mg of active compound which was made up to 10 ml using a mixture of acetone and/or DMSO and the emulsifier Wettol EM 31 (wetting agent having emulsifying and dispersing action based on ethoxylated alkylphenol) in a volume ratio of solvent/emulsifier of 99:1. The mixture was then made up to 100 ml with water. This stock solution was diluted with the solvent/emulsifier/water mixture described to give the concentration of active compound stated below. Leaves of potted tomato plants were sprayed to runoff point with an aqueous suspension having the active compound concentration stated below. The next day, the leaves were inoculated with an aqueous spore suspension of Alternaria solani in a 2% strength biomalt solution. The plants were then placed in a water vapor-saturated chamber at temperatures between 20 and 22° C. After 5 days, the disease on the untreated but infected control plants had developed to such an extent that the infection could be determined visually in %. […]"}, "Botrytis cinerea": {"test_system": "Botrytis cinerea", "test": "Activity against gray mold on bell pepper leaves caused by Botrytis cinerea, 1 day protective application (Botrci P1), greenhouse", "format": "in vivo", "conditions": "bell pepper seedlings, comparative experiment, untreated 100", "method": "The active compounds were prepared separately or jointly as a stock solution comprising 25 mg of active compound which was made up to 10 ml using a mixture of acetone and/or DMSO and the emulsifier Wettol EM 31 (wetting agent having emulsifying and dispersing action based on ethoxylated alkylphenol) in a volume ratio of solvent/emulsifier of 99:1. The mixture was then made up to 100 ml with water. This stock solution was diluted with the solvent/emulsifier/water mixture described to give the concentration of active compound stated below. Bell pepper seedlings were, after 2-3 leaves were well developed, sprayed to runoff point with an aqueous suspension having the active compound concentration stated below. The next day, the treated plants were inoculated with a spore suspension of Botrytis cinerea in a 2% strength biomalt solution. The test plants were then placed in a dark climatized chamber at 22 to 24° C., and high atmospheric humidity. After 5 days, the extent of the fungal infection on the leaves could be determined visually in %."}, "Alternaria solani [2]": {"test_system": "Alternaria solani", "test": "Activity against Alternaria solani early blight pathogen in the microtiter test (Alteso)", "format": "cell-based", "conditions": "125 ppm active compound, microtiter plate, 405 nm, day 7 after inoculation", "method": "(§1) The active compounds were formulated separately as a stock solution having a concentration of […] in DMSO. The stock solution is pipetted onto a microtiter plate (MTP) and diluted to the stated active compound concentration using a malt-based aqueous nutrient medium for fungi. An aqueous spore suspension of Alternaria solani was then added. The plates were placed in a water vapor-saturated chamber at temperatures of 18° C. Using an absorbtion photometer, the MTPs were measured at 405 nm on day 7 after the inoculation. The measured parameters were compared to the growth of the active compound-free control variant and the fungus- and active compound-free blank value to determine the relative growth in % of the pathogens in the individual active compounds."}, "Septoria tritici": {"test_system": "Septoria tritici", "test": "Activity against the Septoria leaf blotch pathogen Septoria tritici in the microtiter test (Septtr)", "format": "cell-based", "conditions": "125 ppm active compound, microtiter plate, 405 nm, day 7 after inoculation", "method": "as §1, with “Septoria tritici” for “Alternaria solani”"}}, "data": [{"compound": "Fc1ccc(C2(Cn3cncn3)OC2c2ccccc2Cl)c(F)c1", "note": "(racemic) [8.12]", "values": [{"measurement": "Infection in % at 63 ppm for Alteso P1", "setting": "Alternaria solani [1]", "value": 10, "unit": "%"}, {"measurement": "Infection in % at 63 ppm for Botrci P1", "setting": "Botrytis cinerea", "value": 30, "unit": "%"}]}, {"compound": "Cc1cccc(C2OC2(Cn2cncn2)c2ccc(F)cc2F)c1", "note": "(stereo not drawn) [8.8]", "values": [{"measurement": "growth (relative growth in % of the pathogens)", "setting": "Alternaria solani [2]", "value": 0, "unit": "%"}, {"measurement": "growth (relative growth in % of the pathogens)", "setting": "Septoria tritici", "value": 0, "unit": "%"}]}, {"compound": "Fc1ccccc1C1(Cn2cncn2)OC1c1ccccc1Cl", "note": "(stereo not drawn) [Comp. No. 6 of EP-A 0196038, reference compound]", "values": [{"measurement": "Infection in % at 63 ppm for Alteso P1", "setting": "Alternaria solani [1]", "value": 90, "unit": "%"}, {"measurement": "Infection in % at 63 ppm for Botrci P1", "setting": "Botrytis cinerea", "value": 100, "unit": "%"}]}]}
